Data published in PMC5971061, “Differential Effects of Linkers on the Activity of Amphiphilic Tobramycin Antifungals” (Molecules : A Journal of Synthetic Chemistry and Natural …, 2018).
In brackets after ≈: the same amount, converted by molar mass.

Legend:
[1] = system: Cryptococcus neoformans MYA-895; design: method as in PMID 26033722; conditions: previously observed; cited from earlier work
[2] = system: C. neoformans clinical isolates CN1-3; experiment: MIC across C. neoformans clinical isolates CN1-3; assay type: cell-based, Cryptococcus neoformans; conditions: Cryptococcus neoformans
Description: The final concentrations of compounds 3, 4, 7a, 7b, 9, and 16, as well as that of TOB tested in this study ranged from 0.24–62.5 μg/mL. CAS was used as a positive control and the final concentrations tested for CAS ranged from 0.03–31.3 μg/mL. Briefly, overnight yeast cultures were grown in yeast peptone dextrose (YPD) broth and the cell density was adjusted to an OD600 of 0.12 (~1 × 10^6 CFU/mL) by using a spectrophotometer. Yeast cell suspensions were further diluted to achieve 1–5 × 10^3 CFU/mL in RPMI 1640 medium, and 100 μL of these yeast cells was added to 96-well microtiter plates containing RPMI 1640 medium and titrated compounds. Each test was performed in triplicate. The plates were incubated at 35 °C for 48 h.

[3] = system: C. albicans ATCC 10231 (strain A); experiment: Time-kill assay, strain A; assay type: cell-based, Candida albicans
Description: (§1) Time-kill assays were used to assess the inhibitory efficiency of 7b against three yeast strains, C. albicans ATCC 10231 (strain A), C. parapsilosis ATCC 22019 (strain J), and C. neoformans clinical isolate CN1. The protocol for time-kill assays followed methods previously described with minor modifications. Yeast cultures were grown overnight in YPD broth at 35 °C with shaking (200 rpm). A working stock of fungal cells was made by diluting cultures in RPMI 1640 medium to an OD600 of 0.125, approximately 1 × 10^6 CFU/mL. From the working stock, 100 μL of cells was added to 4.9 mL of RPMI 1640 medium in sterile culture tubes, making the starting fungal cell concentration […]. Compounds were then added to the fungal cells. The treatment conditions included sterile control, growth control, TOB (parent; negative control), voriconazole (VOR) at 1× MIC (positive control), 7b at 1× and 4× MIC. The treated fungal cultures were incubated at 35 °C with shaking (200 rpm) for 24 h. The samples were taken from the different treatments at regular time points (0, 3, 6, 9, 12, and 24 h.) and plated in duplicates. For each time point, cultures were vortexed, 100 μL of culture was aspirated, and 10-fold serial dilutions were made in sterile ddH2O. From the appropriate dilutions, 100 μL of fungal suspension was spread on PDA plates and incubated at 35 °C for 48 h before the colony counts were determined. At 24 h, 50 μL of 1 mM resazurin was added to the treatments and incubated at 35 °C with rotation for 2 h in the dark for visual inspection. Experiments were performed in duplicate.

[4] = system: C. parapsilosis ATCC 22019 (strain J); experiment: Time-kill assay, strain J; assay type: cell-based, Candida parapsilosis
Description: as §1

[5] = system: C. neoformans (strain CN1); experiment: Time-kill assay, CN1; assay type: cell-based, Cryptococcus neoformans
Description: as §1

[6] = system: C. albicans ATCC 10231 (strain A); experiment: Membrane permeabilization assay using propidium iodide staining; assay type: cell-based, Candida albicans; conditions: 7b at 2× MIC or 4× MIC; TOB 31.3 μg/mL; 2 h treatment; compared to untreated cells
Description: A fresh culture of C. albicans ATCC 10231 (strain A) was prepared in 5 mL of YPD broth in a Falcon tube and was grown overnight at 35 °C at 200 rpm. […] TOB (31.3 μg/mL) was used as a negative control. The cell suspensions were then treated for 2 h at 35 °C with continuous agitation (200 rpm). To prepare a positive control sample, C. albicans ATCC 10231 (strain A) cells were killed by heat shock at 95 °C for 5 min as described by Ocampo and Barrientos. The cells were then centrifuged and resuspended in 500 μL of PBS buffer (pH 7.2 adjusted at room temperature). Subsequently, the cells were treated with propidium iodide (9 μM, final concentration) and incubated for 20 min at room temperature in the dark. […] The data were obtained from at least two independent experiments. The images were also post-processed, utilizing automatic contrast and brightness setting in Microsoft PowerPoint 2013 to eliminate background noise.

## CCCCCCCCCCCCSC[C@H]1O[C@H](O[C@@H]2[C@@H](O)[C@H](O[C@H]3O[C@H](CN)[C@@H](O)C[C@H]3N)[C@@H](N)C[C@H]2N)[C@H](O)[C@@H](N)[C@@H]1O [Compound 3, O-3-Amino-3-deoxy-6-S-dodecyl-6-thio-α-D-glucopyranosyl-(1→6)-O-[2,6-diamino-2,3,6-trideoxy-α-D-ribo-hexopyranosyl-(1→4)]-2-deoxy-D-streptamine]
[1]
  MIC value: 1.95 µg/mL (≈ 2.99 µM)

## NC[C@H]1O[C@H](O[C@H]2[C@H](O)[C@@H](O[C@H]3O[C@H](CO)[C@@H](O)[C@H](N)[C@H]3O)[C@H](N)C[C@@H]2N)[C@H](N)C[C@@H]1O [TOB, tobramycin]
[2]
  MIC: > 62.5 µg/mL
[3]; 24-h period, TOB 15.6 μg/mL, VOR 1× MIC 1.0 μg/mL
  effect on growth (time-kill, in words): did not affect the growth
[4]; TOB 15.6 μg/mL, 24-h period
  effect on growth (time-kill, in words): did not affect the growth
[5]; controls TOB 15.6 μg/mL and VOR 1× MIC, 24-h period
  effect on growth (time-kill, in words): little to no growth inhibitory effect
[6]
  propidium iodide (PI) dye uptake (in words): negligible staining

## CCCCCCCCCCCCc1cn(C[C@H]2O[C@H](O[C@@H]3[C@@H](O)[C@H](O[C@H]4O[C@H](CN)[C@@H](O)C[C@H]4N)[C@@H](N)C[C@H]3N)[C@H](O)[C@@H](N)[C@@H]2O)nn1 [Compound 7b, O-3-Amino-3,6-dideoxy-6-(4-dodecyl-1H-1,2,3-triazol-1-yl)-α-D-glucopyranosyl-(1→6)-O-[2,6-diamino-2,3,6-trideoxy-α-D-ribo-hexopyranosyl-(1→4)]-2-deoxy-D-streptamine]
[3]; 15.6 μg/mL (4× MIC), after 6 h of treatment
  reduction of CFU: ≥ 2 log10
[3]; 1× MIC (7b 3.9 μg/mL; VOR 1.0 μg/mL), after 9 h of treatment
  reduction of CFU: ≥ 2 log10
[4]; 1.95 μg/mL (1× MIC), after 24 h of treatment
  decrease in CFU: ≥ 2 log10
[4]; 7.8 μg/mL (4× MIC), after 24 h
  effect on growth (time-kill, in words): completely killed
[4]; 7b at 1.95 μg/mL (1× MIC)
  effect on growth (time-kill, in words): fungistatic effect at 1.95 μg/mL (1× MIC) only for the first 3 h
[5]; 0.49 μg/mL (1× MIC)
  time to complete fungal cell death: 6 h
[5]; 0.49 μg/mL (1× MIC), after 3 h of treatment
  reduction of CFU: ≥ 2 log10
[5]; 1.95 μg/mL (4× MIC)
  time to complete fungal cell death: 3 h
[6]
  propidium iodide (PI) dye uptake (in words): larger influx of PI dye
